TGI and GI50 data for 13 compounds are collected here from PubChem BioAssay (NCI).

Values after ≈ are worked out from the molar mass of the structure shown.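 Cells were grown in 96-well plates and exposed to each compound for 48 hours at five concentrations; endpoints were interpolated linearly between bracketing concentrations, or set to the highest concentration if not reached. GI50 marks 50% less growth. At the TGI there is no net growth.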

Some test systems named below: TK-10 renal; HCT-15 colon; BT-549 breast; 786-0 renal; MCF7 breast; MDA-N; EKVX NSCLC; UACC-257 melanoma; HOP-92 NSCLC; SN12C renal.
Common to all, as to assay: DTP human tumour cell line panel, 48 h

Usually TGI stands for the concentration giving total growth inhibition. By GI50 is commonly meant the concentration at which growth is held to half of that of the control.

Turning to `CC1(COS(=O)(=O)OCC2(C)COS(=O)(=O)OC2)COS(=O)(=O)OC1`, the TGI was over 100 µM in the experiment on TK-10 renal; over 100 µM in the experiment on HCT-15 colon; over 96.2 µM in the experiment on BT-549 breast; over 100 µM with 786-0 renal; over 59.9 µM in the experiment with MCF7 breast; over 100 µM in the experiment on MDA-N. The TGI is over 100 µM with EKVX NSCLC, over 100 µM in the experiment on UACC-257 melanoma, over 63.8 µM in the experiment with HOP-92 NSCLC and over 32.1 µM in the experiment with SN12C renal.

Regarding `Cc1sc2ccccc2[n+]1CCC(=O)O`, the TGI in the experiment with TK-10 renal, in the experiment with HCT-15 colon, in the experiment with BT-549 breast, in the experiment with 786-0 renal, with MCF7 breast and with MDA-N was over 100 µM in each case. Moreover, the TGI with EKVX NSCLC, in the experiment on UACC-257 melanoma, in the experiment on HOP-92 NSCLC and in the experiment on SN12C renal was over 100 µM each time.

On to `COc1ccc(/C=C2\N=C(c3ccccc3)N(C3Nc4cc5c(cc4S3)NC(N3C(=O)/C(=C/c4ccc(OC)cc4)N=C3c3ccccc3)S5)C2=O)cc1` (centres undefined), for which the concentration for total growth inhibition (TGI) in the experiment with TK-10 renal is over 100 µM; with HCT-15 colon, over 100 µM; in the experiment with BT-549 breast, 61.9 µM; in the experiment on 786-0 renal it was over 100 µM; in the experiment on MCF7 breast, over 100 µM; in the experiment on MDA-N, over 100 µM. Moreover, the TGI was 99.5 µM in the experiment with EKVX NSCLC, over 100 µM in the experiment on UACC-257 melanoma and over 100 µM with HOP-92 NSCLC.

In the case of `O=C1/C(=C2\Sc3c(ccc(Cl)c3Cl)C2=O)Sc2c1ccc(Cl)c2Cl`, the TGI with TK-10 renal, with HCT-15 colon, in the experiment on BT-549 breast, in the experiment with 786-0 renal, in the experiment with MCF7 breast and in the experiment on MDA-N was over 100 µM throughout. Further, the TGI in the experiment on EKVX NSCLC, in the experiment on UACC-257 melanoma, with HOP-92 NSCLC and in the experiment with SN12C renal was over 100 µM throughout.

Regarding `CCOc1cc(C2CC(c3ccc(NS(=O)(=O)c4cc([N+](=O)[O-])ccc4C)cc3)=NN2)ccc1O` (centres undefined), the TGI in the experiment on HCT-15 colon was 67.3 µM; in the experiment with BT-549 breast, 51.6 µM; in the experiment with 786-0 renal it was 67.8 µM; in the experiment with MCF7 breast, 49.6 µM; with MDA-N, over 100 µM; in the experiment on EKVX NSCLC, 53.3 µM. Also, the values for the TGI in the experiment with HOP-92 NSCLC and in the experiment with SN12C renal were over 100 µM and 65.2 µM, respectively.

As to `C[C@]12CC[C@H](O)CC1=CC[C@@H]1[C@@H]2CC[C@]2(C)/C(=N/OCCN3CCCC3)CC[C@@H]12`, the TGI was determined as 63.6 µM in the experiment on TK-10 renal; 28.8 µM in the experiment with HCT-15 colon; 37.6 µM with BT-549 breast; 33.6 µM with 786-0 renal; 44.9 µM with MCF7 breast; 34.3 µM in the experiment with MDA-N. Further, the total growth inhibition concentration (TGI) worked out at 49.2 µM with EKVX NSCLC, 27.7 µM in the experiment with UACC-257 melanoma and 93.6 µM in the experiment on SN12C renal.

For `CC(C)N(C)C(=O)C12C3C4C1C1C2C3C41C#N` (centres undefined), the TGI in the experiment with TK-10 renal, with HCT-15 colon, in the experiment with BT-549 breast, in the experiment on 786-0 renal, in the experiment with MCF7 breast and with MDA-N was over 100 µM each time. Also, the TGI in the experiment on EKVX NSCLC, with UACC-257 melanoma, in the experiment with HOP-92 NSCLC and in the experiment on SN12C renal was over 100 µM throughout.

With `Cc1c(-c2ccccc2)c(C#N)c2nnc(C(N)=O)c(N)n12`, the concentration for total growth inhibition (TGI) with TK-10 renal, in the experiment on HCT-15 colon, in the experiment on BT-549 breast, in the experiment with 786-0 renal, in the experiment with MCF7 breast and in the experiment on MDA-N was over 100 µM in each case. The TGI in the experiment on EKVX NSCLC, in the experiment on UACC-257 melanoma and with SN12C renal was over 100 µM in each case.

In the case of `O=C(CNc1ccc(Cl)cc1Cl)NC1C=Cc2ccc(S(=O)(=O)Nc3ccc(Cl)cc3Cl)cc2C1=O` (centres undefined), the concentration for total growth inhibition (TGI) with TK-10 renal, with HCT-15 colon, in the experiment with BT-549 breast, in the experiment on 786-0 renal, in the experiment with MCF7 breast and in the experiment on MDA-N was over 100 µM in each case. Also, the TGI in the experiment on EKVX NSCLC, in the experiment on UACC-257 melanoma, in the experiment with HOP-92 NSCLC and in the experiment with SN12C renal was over 100 µM throughout.

For `COc1cc(/C=C2/N=C(c3ccccc3)N(C3=NNC4(C(=O)N3)c3ccccc3-c3ccccc34)NC2=O)ccc1O`, the GI50 with TK-10 renal was 35.8 µg/mL (≈ 64.3 µM); with HCT-15 colon, 46.7 µg/mL (≈ 83.8 µM); in the experiment on BT-549 breast, 25.9 µg/mL (≈ 46.6 µM); in the experiment on MCF7 breast, 33.2 µg/mL (≈ 59.6 µM); in the experiment on MDA-N it was 31.1 µg/mL (≈ 55.8 µM); in the experiment on EKVX NSCLC it was 15 µg/mL (≈ 27 µM). The GI50 with UACC-257 melanoma is 27.2 µg/mL (≈ 49 µM); with SN12C renal, 25.6 µg/mL (≈ 46 µM). The concentration for total growth inhibition (TGI) in the experiment on TK-10 renal is 78.2 µg/mL; with HCT-15 colon it was over 150 µg/mL; in the experiment on BT-549 breast, 47.5 µg/mL; in the experiment with MCF7 breast it was 77.1 µg/mL; with MDA-N, 65 µg/mL; in the experiment with EKVX NSCLC, 15 µg/mL. For the same compound, the TGI with UACC-257 melanoma was 51.8 µg/mL; in the experiment with SN12C renal it was 56.8 µg/mL.

As to `CC(=O)OCC=C(CCl)CCC(Br)C(C)(C)Br` (mixture of isomers), the concentration for total growth inhibition (TGI) in the experiment with TK-10 renal, with HCT-15 colon, with BT-549 breast, with 786-0 renal, in the experiment on MCF7 breast and with MDA-N was over 10 µM each time. The total growth inhibition concentration (TGI) with EKVX NSCLC, with UACC-257 melanoma and with SN12C renal was over 10 µM in each case.

Turning to `O=c1[nH]c(N/N=C\C(O)C(O)C(O)CO)nc2ccccc12` (centres undefined), the TGI with TK-10 renal, with HCT-15 colon, in the experiment on BT-549 breast, in the experiment with 786-0 renal, with MCF7 breast and in the experiment on MDA-N was over 100 µM throughout. Also, the total growth inhibition concentration (TGI) in the experiment with EKVX NSCLC, with UACC-257 melanoma, in the experiment on HOP-92 NSCLC and in the experiment on SN12C renal was over 100 µM throughout.

Consider `CCO/C(O)=C(/C(=N)N1CCCC1)C(=O)Nc1cccc(C(F)(F)F)c1`, for which the TGI in the experiment on TK-10 renal, in the experiment with HCT-15 colon, in the experiment with BT-549 breast, in the experiment with 786-0 renal, in the experiment on MCF7 breast and in the experiment on MDA-N was over 100 µM in each case. Also, the concentration for total growth inhibition (TGI) with EKVX NSCLC, in the experiment on UACC-257 melanoma and in the experiment on SN12C renal was over 100 µM throughout.
